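These data come from cells grown in 96-well plates and exposed to compound for 48 hours at five concentrations. The concentration for 50% growth inhibition is given as GI50.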 Calls of active or inactive are those of the source. Rule as the data show it: active = GI50 up to about 1.1 µM and inactive = higher.
Experiments:
Test in all cases: growth of human tumour cells (NCI), 48 h
MCF7 = test system: MCF7
UACC-62 = test system: UACC-62
BT-549 = test system: BT-549
NCI-H226 = test system: NCI-H226
M14 = test system: M14
SR = test system: SR
RPMI-8226 = test system: RPMI-8226
HT-29 = test system: HT-29
ACHN = test system: ACHN
PC-3 = test system: PC-3
SN12C = test system: SN12C
UACC-257 = test system: UACC-257
SF-295 = test system: SF-295
LOX IMVI = test system: LOX IMVI
A498 = test system: A498
K562 = test system: K562
NCI-H460 = test system: NCI-H460
SK-OV-3 = test system: SK-OV-3
SW-620 = test system: SW-620
SK-MEL-5 = test system: SK-MEL-5

SMILES | GI50 (MCF7) | GI50 (UACC-62) | GI50 (BT-549) | GI50 (NCI-H226) | GI50 (M14) | GI50 (SR) | GI50 (RPMI-8226) | GI50 (HT-29) | GI50 (ACHN) | GI50 (PC-3) | GI50 (SN12C) | GI50 (UACC-257) | GI50 (SF-295) | GI50 (LOX IMVI) | GI50 (A498) | GI50 (K562) | GI50 (NCI-H460) | GI50 (SK-OV-3) | GI50 (SW-620) | GI50 (SK-MEL-5)
CS(=N)(=O)CCC(N)P(=O)(O)O (stereo not drawn) | > 100 µM (inactive) | > 100 µM (inactive) | > 100 µM (inactive) | > 100 µM (inactive) | > 100 µM (inactive) | > 100 µM (inactive) | > 100 µM (inactive) | > 100 µM (inactive) | > 100 µM (inactive) | > 100 µM (inactive) | > 100 µM (inactive) | > 100 µM (inactive) | > 100 µM (inactive) | > 100 µM (inactive) | > 100 µM (inactive) | > 100 µM (inactive) | > 100 µM (inactive) | > 100 µM (inactive) | > 100 µM (inactive) | > 100 µM (inactive)
CCC(=O)c1cc(C(=O)C(=S)SC)cc(C(=O)C(=S)SC)c1 | > 72.1 µM (inactive) | > 100 µM (inactive) | > 100 µM (inactive) | > 100 µM (inactive) | > 100 µM (inactive) | 11 µM (inactive) | 99.3 µM (inactive) | > 100 µM (inactive) | > 87.1 µM (inactive) | > 100 µM (inactive) | > 100 µM (inactive) | > 100 µM (inactive) | > 100 µM (inactive) | 4.19 µM (inactive) | > 100 µM (inactive) | 41.9 µM (inactive) | > 100 µM (inactive) | > 100 µM (inactive) | 52.8 µM (inactive) | > 82.8 µM (inactive)
COc1ccc(C2C3=C(COC3=O)OC(C)(C)Oc3cc4c(cc32)OCO4)cc1OC (stereo not drawn) | 40.1 µM (inactive) | 34 µM (inactive) | 32.3 µM (inactive) | > 78.7 µM (inactive) | 28.2 µM (inactive) | 29.2 µM (inactive) | 41.6 µM (inactive) | 39.4 µM (inactive) | 51.5 µM (inactive) | 28.1 µM (inactive) | 51.9 µM (inactive) | 39.4 µM (inactive) | 29 µM (inactive) | 40.8 µM (inactive) | 23.1 µM (inactive) | 30.8 µM (inactive) | 37.1 µM (inactive) | 50.5 µM (inactive) | 33.3 µM (inactive) | 30.3 µM (inactive)
C=C1C(=O)OC2CC(C)C3CC(O)OC(OCC)C3(C)CC12 (stereo not drawn) | 13.3 µM (inactive) | > 37.6 µM (inactive) | > 41.8 µM (inactive) | 25.3 µM (inactive) | 14.8 µM (inactive) | 13.6 µM (inactive) | 11.4 µM (inactive) | 17.8 µM (inactive) | 15.4 µM (inactive) | 19.9 µM (inactive) | 15.8 µM (inactive) | 16.3 µM (inactive) | 26.6 µM (inactive) | 6.01 µM (inactive) | 28.1 µM (inactive) | 11.8 µM (inactive) | 18.6 µM (inactive) | 27.5 µM (inactive) | 6.85 µM (inactive) | 15.5 µM (inactive)
COc1cc2c(cc1O)C(c1cc(O)c(O)c(OC)c1)C(O)(C(=O)O)C(CO)C2O (stereo not drawn) | 20.9 µM (inactive) | > 100 µM (inactive) | > 100 µM (inactive) | > 100 µM (inactive) | > 100 µM (inactive) | 66.4 µM (inactive) | > 100 µM (inactive) | > 100 µM (inactive) | > 100 µM (inactive) | > 100 µM (inactive) | 16.4 µM (inactive) | > 100 µM (inactive) | > 100 µM (inactive) | 17.9 µM (inactive) | > 100 µM (inactive) | 47 µM (inactive) | > 100 µM (inactive) | > 100 µM (inactive) | 26 µM (inactive) | > 100 µM (inactive)
COC(NC(=O)Nc1ccccc1C)(C(F)(F)F)C(F)(F)F | > 100 µM (inactive) | 56.6 µM (inactive) | 94.4 µM (inactive) | > 100 µM (inactive) | > 100 µM (inactive) | > 100 µM (inactive) | > 100 µM (inactive) | > 100 µM (inactive) | > 100 µM (inactive) | 56.4 µM (inactive) | > 100 µM (inactive) | – | > 100 µM (inactive) | > 100 µM (inactive) | > 100 µM (inactive) | 77.1 µM (inactive) | > 100 µM (inactive) | > 100 µM (inactive) | > 100 µM (inactive) | > 100 µM (inactive)
COc1ccc(/C=C\c2cc(OC)c(OC)c(OC)c2)cc1OC(=O)CCC(=O)O | < 0.01 µM (active) | < 0.0001 µM (active) | 25.8 µM (inactive) | < 0.0001 µM (active) | < 0.0001 µM (active) | < 0.0001 µM (active) | < 0.0001 µM (active) | 0.774 µM (active) | < 0.0001 µM (active) | < 0.0001 µM (active) | < 0.0001 µM (active) | > 10 µM (inactive) | 0.000158 µM (active) | < 0.0001 µM (active) | 0.067 µM (active) | < 0.0001 µM (active) | < 0.0001 µM (active) | 0.000895 µM (active) | < 0.0001 µM (active) | 0.1 µM (active)
Clc1cccc(Cl)c1/C=N/C12CC3CC(CC(C3)C1)C2 | > 10 µM (inactive) | > 10 µM (inactive) | > 10 µM (inactive) | > 10 µM (inactive) | > 10 µM (inactive) | 3.26 µM (inactive) | > 10 µM (inactive) | > 10 µM (inactive) | > 10 µM (inactive) | > 10 µM (inactive) | > 10 µM (inactive) | > 10 µM (inactive) | > 10 µM (inactive) | > 10 µM (inactive) | > 10 µM (inactive) | > 10 µM (inactive) | > 10 µM (inactive) | > 10 µM (inactive) | > 10 µM (inactive) | > 10 µM (inactive)
O=[N+]([O-])c1ccc2c(c1)C1=NN(c3ccccc3)C(c3ccccc3Br)C1CCC2 (stereo not drawn) | 11.2 µM (inactive) | 9.62 µM (inactive) | 13.2 µM (inactive) | 25.5 µM (inactive) | 23.2 µM (inactive) | 4.05 µM (inactive) | 6.85 µM (inactive) | 16.1 µM (inactive) | 22.8 µM (inactive) | 31.2 µM (inactive) | 24.6 µM (inactive) | 19 µM (inactive) | 17.9 µM (inactive) | 19.9 µM (inactive) | 12.1 µM (inactive) | 4.53 µM (inactive) | 22.6 µM (inactive) | > 50 µM (inactive) | 9.12 µM (inactive) | 15.4 µM (inactive)
O=C([C@H](O)[C@@H](O)c1ccc(Br)cc1)C12CC3CC(CC(C3)C1)C2 | 7.31 µM (inactive) | 7.82 µM (inactive) | 8.73 µM (inactive) | > 49.8 µM (inactive) | 13.6 µM (inactive) | 34.8 µM (inactive) | 14.3 µM (inactive) | 12.7 µM (inactive) | 16.3 µM (inactive) | 6.58 µM (inactive) | 17.9 µM (inactive) | 9.59 µM (inactive) | 13 µM (inactive) | 31.1 µM (inactive) | 11.6 µM (inactive) | 31.5 µM (inactive) | 3.74 µM (inactive) | 28.4 µM (inactive) | – | 23.6 µM (inactive)

— ChEMBL document CHEMBL1201862, “PubChem BioAssay data set” (2004)
